From patent EP0418113A2, “Microbiological assay kit and method for detecting antibacterial compounds” (ORGENICS LIMITED, priority 1989, dated 1991)
Where “and” joins values, the source holds several entries; their conditions need not be identical. Identical values can stand only once.

Columns and labels:
[1] = tested on: Strep. thermophilus cells; experiment: Visual antibiotic assay in milk with lyophilized bacteria subjected to osmotic changes (MTT colour); assay type: cell-based, Streptococcus thermophilus (ATCC 14485)
Method: Keep cold until use. • (b) To each 1 mL milk specimen or controls add 0.053 gr glucose and 0.1 mL of rehydrated bacterial suspension obtained in (a) above. Mix and incubate at 42°C for 25 min. • (c) Add 2 mL of a chromogenic mixture, containing 0.5 % glucose and 0.175 mg/mL MTT in water to each of the specimens and controls. Mix and incubate for 5 min at 42°C. • (d) Visually examine the color of each specimen and compare it to the color of the control. A color density lower than the color of the control indicates antibiotic activity in the specimen. Table 5 below summarizes the sensitivity of the visual assay for various antibiotic drugs, added to antibiotic free milk specimens.

[2] = tested on: Strep. thermophilus cells; experiment: Detection of Penicillin G in milk by inhibition of MTT reduction in Strep. thermophilus cells, butanol extraction, OD 570 nm; assay type: cell-based, Streptococcus thermophilus (ATCC 14485); conditions: isotonic MTT solution (0.3M sucrose); Penicillin concentration 4; lyophilized cells
[3] = tested on: B. stearothermophilus (ATCC 10149) cells; experiment: Inhibition of MTT colour formation in B. stearothermophilus after pre-incubation in isotonic or hypertonic medium (Tryptic Soy broth); assay type: cell-based, Bacillus stearothermophilus; conditions: specimen containing 40 mIU/mL Penicillin G
Method: Logarithmic B. stearothermophilus (ATCC 10149) cells were suspended in Difco Tryptic Soy broth with or without 0.8M sucrose, and incubated at 55°C with shaking for 1 hr. […] Control reaction mixture was constructed with bacterial suspension and Tryptic Soy broth. Following a 30 min incubation at 55°C, all reaction mixtures were diluted 1:5 into […] MTT, 0.5 glucose in water and incubation continued for 5 minutes. The color suspension was clarified by vigorously mixing 0.5 mL aliquots with 0.7 mL isoamyl alcohol containing 0.04N hydrochloric acid. The optical density of the clarified mixtures was measured at 570 nm and the inhibition of color formation, relative to the control was calculated and is presented in Table 7.

[4] = tested on: B. stearothermophilus ATCC 10149; experiment: Detection of Penicillin G in milk with B. stearothermophilus cells (MTT reduction); assay type: cell-based, Bacillus stearothermophilus; conditions: 30 min at 55°C + 10 min MTT
Method: The whole reaction mixture is filtered through glass filter paper circles (e.g. Whatman GF/F, 2.5 cm diameter). The color can be estimated visually or measured by a reflecting densitometer, such as Gretag D182 (Gretag Ltd., CH-8105 Regensdorf, Switzerland). • (a) Inoculate B. stearothermophilus ATCC 10149 into a liquid medium constructed from 10 % Difco skim milk and 0.5 % Difco yeast extract in water. Incubate at 55°C with constant (shaking) for 18 hrs. • (b) Dilute the overnight culture 1:20 into fresh liquid medium and continue shaking at 55°C for 2 hrs. • (c) Dilute 1:10 into liquid medium fortified with 0.8M sucrose and continue shaking at 55°C for 2.5 hrs. […] Use immediately or keep on ice until ready to continue. • (d) Mix each Penicillin containing milk specimen with an equal volume of B. stearothermophilus suspension, as obtained in Step (c). Shake for 30 minutes at 55°C. • (e) Add MTT solution, as described in Example 2 (d) and continue shaking for 10 minutes at 55°C. • (f) Determine the amount of MTT dye as described in Example 3(b).

[5] = tested on: Strep. thermophilus cells; experiment: Detection of Penicillin G in milk by inhibition of MTT reduction in Strep. thermophilus cells, butanol extraction, OD 570 nm; assay type: cell-based, Streptococcus thermophilus (ATCC 14485)
Method: • (a) Streak Streptococcus thermophilus (ATCC 14485) suspension on solid medium, comprising 10 % Difco skim milk, 0,5 % Difco yeast extract, 2 % Agar in distilled water. Distinct colonies should emerge after overnight incubation at 42°C. • (b) Suspended a colony in 10 mL of a liquid medium, comprising 10 % Difco skim milk and 0.5 % Difco yeast extract in water (medium A). Incubate the suspension overnight at 42°C in 12 mL plastic, disposable centrifuge test tubes. • (c) Dilute the resultant suspension 1:10 into medium A and incubate at 42°C until the pH of the medium drops to 5.0 (about 2hrs). The resulting viable cell concentration is 1-2x10⁸/1mL. • (d) Cell concentration can be increased by adding 1N NaOH solution until the pH is raised to 6.2, and continuing incubation at 42°C until the pH drops again to 5.0. This cycle can be repeated 5-7 times until the culture becomes stationary at 1-2x10⁹ cells/mL. • (e) Adjust cell concentration to 1 x 10⁸ cells mL and store at 6-10°C for up to 24 hrs for use in antibiotic assay. Alternatively, distribute 2 mL aliquots of the suspension into 12 mL Penicillin vials (24 x 45 mm), freeze in liquid nitrogen and dry on refrigerated shelves of a stoppering, programmable lyophilizer, employing a 48-72 hour program.
• (a) Add 2 mL of distilled water to each vial of dried Strep. thermophilus cells, prepared as described in Example 1. Freshly grown Strep. thermophilus at 1x10⁸ cells/mL are used without any treatment. • (b) Construct reaction mixtures for the detection of antibiotic activity in milk specimens from 0.4 mL cell suspension (fresh or rehydrated lyophilized), 1.6 mL milk specimen, 0.05 mL 10 % Difco Yeast Extract and 0.05 mL 10 % Difco Tryptose. Include at least one control milk specimen, known not to contain any antibiotic drug, whenever the Antibiotic assay is employed. • (c) Incube the complete antibiotic exposure mixtures of the control and unknown milk specimens for 25 minutes at 42°C. • (d) Upon completion of the incubation mix 0.4 mL aliquots of all reaction mixtures with 1.6 mL of 0.5 % glucose, 0.175 mg/mL MTT (3-[4,5-Dimethylthiazol-2-yl]-2.5 diphenyltetrazolium bromide) in water, and incubate for 5 minutes. The amount of color resulting from MTT reduction can be estimated by one of the methods detailed in Example 3.
Transfer a 0.75 mL aliquot of the reaction mixture to a 2 mL microcentrifuge test tube. Add 0.75 mL 1-Butanol. Agitate on a vortex mixer for 15 seconds. Centrifuge the suspension at 10,000 x g for 2.5 minutes. Transfer 0.6 mL the upper clear, colored phase to a clean microcentrifuge test tube, containing 0.6 mL 1-Butanol. Agitate on a vortex mixer for 15 seconds. Centrifuge the suspension at 10,000 x g for 2.5 minutes. Transfer 1 mL the upper clear, colored phase to a clean cuvette. Determine the color density at 570 nm.
Milk specimens containing 3.5 or 7 mIU/mL of Penicillin G were tested with lyophilized Strep. thermophilus organisms, as described in Example 2. Color development for each antibiotic concentration was carried out either with the MTT solution as described in section (d) of Example 2, which is hypotonic or with the same solution, made isotonic by the addition of sucrose to 0.3M final concentration.
The amount of MTT color produced was determined by measuring the optical density of butanol extract made from the reaction mixtures (example 3 (d)).
Milk specimens containing 1-14 mIU:mL Penicillin G, were tested as described in Example 2 for lyophilized bacteria.
Milk specimens, containing 7 mIU/mL of Penicillin G were tested as described in Example 2 for lyophilized Strep. thermophilus cultivated to high density by pH adjustments. Incubation times of the milk specimens with the indicator bacteria varied between 10 and 25 minutes. Incubation with the MTT solution varied between 5 and 10 minutes. The amount of MTT color produced was determined by measuring the optical density of butanol extract made from the reaction mixtures (example 3 (d)). […]

[6] = added to antibiotic free milk, 25 min at 42°C + 5 min MTT
[7] = Penicillin G Concentration 16 mIU/mL in milk
[8] = Penicillin G Concentration 32 mIU/mL in milk
[9] = Penicillin Concentration 1 mIU/mL, lyophilized cells
[10] = Penicillin Concentration 2 mIU/mL, lyophilized cells
[11] = Penicillin Concentration 4 mIU/mL, lyophilized cells
[12] = Penicillin Concentration 7 mIU/mL, lyophilized cells
[13] = Penicillin Concentration 14 mIU/mL, lyophilized cells
[14] = dried (lyophilized) cells, 7 mIU/mL Penicillin G in milk
[15] = hypotonic MTT solution, Penicillin concentration 4, lyophilized cells
[16] = hypotonic MTT solution, Penicillin concentration 7, lyophilized cells
[17] = isotonic MTT solution (0.3M sucrose), Penicillin concentration 7, lyophilized cells

Compound: Nc1ccc(S(=O)(=O)Nc2ncccn2)cc1 [Sulfadiazine]
- Sensitivity (lowest concentration causing visually detectable decrease in color) ([1]; test conducted in presence of 10 ug.mL trimethoprim, added to the milk specimen): 20 ug/mL^b

Compound: CN(C)[C@@H]1C(O)=C(C(N)=O)C(=O)[C@@]2(O)C(O)=C3C(=O)c4c(O)cccc4[C@@](C)(O)[C@H]3[C@H](O)[C@@H]12 [Oxytetracycline]
- Sensitivity (lowest concentration causing visually detectable decrease in color) [1, 6]: 0.4 µg/mL

Compound: Polymyxin
- Sensitivity (lowest concentration causing visually detectable decrease in color) [1, 6]: 10 µg/mL

Compound: CN(C)[C@@H]1C(O)=C(C(N)=O)C(=O)[C@@]2(O)C(O)=C3C(=O)c4c(O)cccc4[C@@](C)(O)[C@H]3C[C@@H]12 [Tetracycline]
- Sensitivity (lowest concentration causing visually detectable decrease in color) [1, 6]: 0.2 µg/mL

Compound: CC1(C)S[C@@H]2[C@H](NC(=O)[C@H](N)c3ccccc3)C(=O)N2[C@H]1C(=O)O [Ampicillin]
- Sensitivity (lowest concentration causing visually detectable decrease in color) [1, 6]: 0.002 µg/mL

Compound: CC1(C)S[C@@H]2[C@H](NC(=O)Cc3ccccc3)C(=O)N2[C@H]1C(=O)O [Penicillin G]
- Sensitivity (lowest concentration causing visually detectable decrease in color) [1, 6]: 3.5 mIU/mL
- % inhibition [2]: 3%
- % Inhibition with ([3]; hypertonic pre-incubation medium (0.8M sucrose)): 54%
- % Inhibition with ([3]; isotonic pre-incubation medium (without sucrose)): 10%
- % inhibition [4, 7]: 34%
- OD at 570 nm [4, 7]: 0.250
- % inhibition [4, 8]: 59%
- OD at 570 nm [4, 8]: 0.155
- Inhibition (%) ([5]; 7 mIU/mL Penicillin G, first incubation 10 min, MTT 5 min (total 15 min), lyophilized high-density cells): 7%
- Inhibition (%) ([5]; 7 mIU/mL Penicillin G, first incubation 10 min, MTT 10 min (total 20 min), lyophilized high-density cells): 40% and 42%
- Inhibition (%) ([5]; 7 mIU/mL Penicillin G, first incubation 15 min, MTT 5 min (total 20 min), lyophilized high-density cells): 21%
- Inhibition (%) ([5]; 7 mIU/mL Penicillin G, first incubation 15 min, MTT 10 min (total 25 min), lyophilized high-density cells): 42%
- Inhibition (%) ([5]; 7 mIU/mL Penicillin G, first incubation 20 min, MTT 5 min (total 25 min), lyophilized high-density cells): 77%
- Inhibition (%) ([5]; 7 mIU/mL Penicillin G, first incubation 20 min, MTT 10 min (total 30 min), lyophilized high-density cells): 53%
- Inhibition (%) ([5]; 7 mIU/mL Penicillin G, first incubation 25 min, MTT 5 min (total 30 min), lyophilized high-density cells): 62%
- Inhibition (%) ([5]; 7 mIU/mL Penicillin G, first incubation 25 min, MTT 10 min (total 35 min), lyophilized high-density cells): 57%
- Inhibition (%) [5, 9]: 17%
- OD at 570 nm [5, 9]: 0.098
- Inhibition (%) [5, 10]: 32%
- OD at 570 nm [5, 10]: 0.080
- Inhibition (%) [5, 11]: 56%
- OD at 570 nm [5, 11]: 0.052
- Inhibition (%) [5, 12]: 74%
- OD at 570 nm [5, 12]: 0.031
- Inhibition (%) [5, 13]: 80%
- OD at 570 nm [5, 13]: 0.024
- % inhibition [5, 14]: 60%
- OD 570 nm in 7 mIU/mL Penicillin Specimen [5, 14]: 0.062
- % inhibition ([5]; fresh cells, 7 mIU/mL Penicillin G in milk): 55%
- OD 570 nm in 7 mIU/mL Penicillin Specimen ([5]; fresh cells, 7 mIU/mL Penicillin G in milk, 25 min at 42°C + 5 min MTT): 0.088
- % inhibition [5, 15]: 56%
- OD at 570 nm [5, 15]: 0.052
- % inhibition [5, 16]: 74%
- OD at 570 nm [5, 16]: 0.031
- OD at 570 nm ([5]; isotonic MTT solution (0.3M sucrose), Penicillin concentration 4, lyophilized cells): 0.113
- % inhibition [5, 17]: 34%
- OD at 570 nm [5, 17]: 0.077
- concentration detectable in milk ([5]; lyophilized cells, butanol extraction, OD 570 nm): 1 mIU/mL

Compound: O=C(N[C@H](CO)[C@H](O)c1ccc([N+](=O)[O-])cc1)C(Cl)Cl [Chloramphenicol]
- Sensitivity (lowest concentration causing visually detectable decrease in color) [1, 6]: 2.5 µg/mL

Compound: Cc1onc(-c2ccccc2Cl)c1C(=O)N[C@@H]1C(=O)N2[C@@H]1SC(C)(C)[C@@H]2C(=O)O [Cloxacillin]
- Sensitivity (lowest concentration causing visually detectable decrease in color) [1, 6]: 0.002 µg/mL
